In one assay the test system is E. maxima. The assay is described as follows: E. maxima infection of chickens: performance and fecal oocyst shedding (Example 8). Type of assay: in vivo. Particulars: E. maxima-infected chickens, 90 mg/kg feed of monensin. An excerpt: Newly hatched chickens from Longnecker's hatchery, Elizabethtown, PA were housed in a Petersime brooder units and provided with feed and water ad libitum. All chickens were weighed and allocated to a cage. Per treatment, 60 chickens (5 birds/cage=12 replication) were used. Initial body weight was the same among treatments. For E. maxima infection freshly propagated E. maxima (ARS strain) were used to infect the birds. On d 14 after hatch, the birds were infected with 10,000 E. maxima oocysts through oral gavage. The experimental treatments were the following: [1]=Negative control (NC), non infected and untreated chicken; [2]=Positive control (PC)=[1]+infection; […] [4]=[2]+55 ppm of dried Glycyrrhiza glabra leaves; [5]=[2]+160 ppm of dried Glycyrrhiza glabra leaves. Monensin is the current standard used to control coccidiosis. […] Oocyst shedding: Faeces from each group was collected separately from 6-8 days post infection (dpi) for coccidiosis. To count coccidia oocysts, various dilutions were made initially to determine the optimum dilutions for enumeration of oocysts for each sample. Oocysts were counted microscopically using a McMaster counting chamber using a sodium chloride flotation method. The total number of oocysts shed per chicken were calculated using the formula: total oocysts/bird=(oocyst count×dilution factor×fecal sample volume/counting chamber volume)/number of birds per cage.

Assay [1] relates to Alpha mouse liver 12 cells (AML12). The class given is cell-based.

For the compound `CC[C@@]1([C@@H]2O[C@@H]([C@H]3O[C@@](O)(CO)[C@H](C)C[C@@H]3C)C[C@@H]2C)CC[C@H]([C@]2(C)CC[C@]3(C[C@H](O)[C@@H](C)[C@@H]([C@@H](C)[C@@H](OC)[C@H](C)C(=O)O)O3)O2)O1` [MO, monensin], in the assay with E. maxima, the “ADFI d 15 to 19 (0 to 4 dpi)” value is given as 90 g, the “ADFI d 15 to 21 (0 to 6 dpi)” value was 93.5 g, the “ADFI d 15 to 23 (0 to 8 dpi)” value is given as 94.3 g and the “ADG d 15 to 19 (0 to 4 dpi)” value turned out to be 76.3 g. In the assay with E. maxima, the “ADG d 15 to 21 (0 to 6 dpi)” value is 72.9 g, the “ADG d 15 to 23 (0 to 8 dpi)” value was 79.3 g, the “BW d 19 (4 dpi)” value is on record as 890 g and the “BW d 21 (6 dpi)” value was 1,023 g. For the same compound, in the assay on E. maxima, the “BW d 23 (8 dpi)” value is 1,220 g, the “FCR d 15 to 19 (0 to 4 dpi)” value amounted to 1.191, the “FCR d 15 to 21 (0 to 6 dpi)” value is listed as 1.31 and the “FCR d 15 to 23 (0 to 8 dpi)” value came out at 1.21. In addition, in the assay with E. maxima, the Lesion score entry is “reduced”. Moreover, the “Number of oocysts (fecal oocyst shedding, FIG. 2)” value in the assay with E. maxima (faeces 6-8 dpi) is given as “reduced”.
Consider Aflatoxin B1, for which the “Cell viability (%)” value in assay [1] is listed as 51.8%.
